Experimental data: US8883771B2, “Bivalent inhibitors of IAP proteins and therapeutic methods using the same” (The Regents of the University of Michigan, priority 2012, dated 2014)
Where two headings read alike, the source gives them in different places.

Columns and labels:
[1] = target: cIAP-2 BIR3 (residues 238-349) (Homo sapiens (Human), UniProt Q13489); assay: Fluorescence polarization (FP) based competitive binding assay, cIAP-2 BIR3; details: read-out: Binding Affinities IC50 (nM) cIAP2 Protein
Procedure: (§1) For cIAP-1 BIR3 and cIAP-2 BIR3 assays, a fluorescently labeled Smac mimetic (Smac-2F) was used as the fluorescent probe. The Kd values of Smac-2F to cIAP-1 BIR3 and cIAP-2 BIR3 were determined by monitoring the total fluorescence polarization of mixtures composed with the fluorescent probe at a fixed concentration and proteins with increasing concentrations up to full saturation. Fluorescence polarization values were measured using the Infinite M-1000 plate reader (Tecan U.S., Research Triangle Park, N.C.) in Microfluor 2 96-well, black, round-bottom plates (Thermo Scientific). To each well, 1 nM of SMAC-2F and increasing concentrations of protein were added to a final volume of 125 μl in the assay buffer (100 mM potassium phosphate, pH 7.5, 100 μg/ml bovine γ-globulin, 0.02% sodium azide, Invitrogen, with 4% DMSO). Plates were incubated at room temperature for 1-2 hours and mixed with gentle shaking to assure equilibrium. […] Equilibrium dissociation constants (Kd) were then calculated by fitting the sigmoidal dose-dependent FP increases as a function of protein concentrations using Graphpad Prism 5.0 software (Graphpad Software, San Diego, Calif.).
(§2) Mixtures of 5 μl of the tested compounds in DMSO and 120 μl of preincubated protein/tracer complex in the assay buffer (100 mM potassium phosphate, pH 7.5, 100 μg/ml bovine γ-globulin, 0.02% sodium azide, Invitrogen) were added into assay plates and incubated at room temperature for 2 hours with gentle shaking. Final concentrations of proteins and probes were 3 nM and 1 nM, 5 nM and 1 nM for assays for cIAP-1 BIR3 and cIAP-2 BIR3, respectively. […] FP values were measured as described above. IC50 values were determined by nonlinear regression fitting of the competition curves. The Ki values of competitive inhibitors were calculated using the derived equation described previously, based upon the measured IC50 values, the Kd values of the probe to different proteins, and the concentrations of the proteins and probes in the competitive assays.

[2] = test system: MDA-MB-231 breast cancer cell line; assay: Inhibition of cell growth in MDA-MB-231 breast cancer cell line; type: cell-based, human
[3] = test system: SK-OV-3 ovarian cancer cell line; assay: Inhibition of cell growth in SK-OV-3 ovarian cancer cell line; type: cell-based, human
[4] = target: XIAP linker-BIR2-BIR3 (residues 120-356) (Homo sapiens (Human), UniProt P98170); assay: Fluorescence polarization (FP) based competitive binding assay, XIAP linker-BIR2-BIR3; details: read-out: Binding Affinities IC50 (nM) XIAP Protein
Procedure: as §1, §2
The FP-based assay for XIAP linker-BIR2-BIR3 protein was performed with the same procedures. In this assay, a bivalent fluorescently tagged peptidic Smac mimetic (Smac-1F) was used as the fluorescent probe whose Kd value to XIAP linker-BIR2-BIR3 was determined similarly through the saturation experiments. 0.01% of Triton X-100 was added in the assay buffer to achieve stable fluorescence and polarization value of the dimeric fluorescent probe. Final protein and probe concentrations utilized in the competitive assay were 3 nM and 1 nM, respectively.

[5] = target: cIAP1-BIR3 (residues 253-363) (Homo sapiens (Human), UniProt Q13490); assay: Fluorescence polarization (FP) based competitive binding assay, cIAP1-BIR3; details: Smac-2F probe, read-out: Binding Affinities IC50 (nM) cIAP1 Protein
Procedure: as §1, §2

[6] = FP competitive assay, Smac-2F probe
[7] = FP competitive assay, Smac-1F probe
[8] = Homo sapiens, MDA-MB-231, MDA-MB-231 breast cancer cell line
[9] = Homo sapiens, SK-OV-3, SK-OV-3 ovarian cancer cell line
[10] = Homo sapiens, MDA-MB-231 breast cancer cell line
[11] = Homo sapiens, SK-OV-3 ovarian cancer cell line

Structure (SMILES) | IC50 [1, 6] [nM] | IC50 ([2]; MDA-MB-231 breast cancer cell line) [nM] | IC50 ([3]; SK-OV-3 ovarian cancer cell line) [nM] | IC50 [4, 7] [nM] | IC50 [5] [nM] | IC50 [2, 8] [nM] | IC50 [3, 9] [nM] | IC50 [2, 10] [nM] | IC50 [3, 11] [nM] | IC50 [4] [nM] | IC50 [1] [nM]
CN[C@@H](C)C(=O)N[C@H]1CN(C(=O)NCCCCCCNC(=O)N2CC[C@H]3CC[C@@H](C(=O)N[C@H]4CCCC[C@@H]4c4ccccc4)N3C(=O)[C@@H](NC(=O)[C@H](C)NC)C2)CC[C@H]2CCC(C(=O)N[C@H]3CCCC[C@@H]3c3ccccc3)N2C1=O (stereo in doubt) [Example 40] | < 3000 | < 10000 | < 10000 | < 3000 | < 3000 |  |  |  |  |  | 
CN[C@@H](C)C(=O)N[C@H]1CN(C(=O)NCCCCCCNC(=O)N2CC[C@H]3CC[C@@H](C(=O)N[C@H]4CCC[C@@H]4c4ccccc4)N3C(=O)[C@@H](NC(=O)[C@H](C)NC)C2)CC[C@H]2CCC(C(=O)N[C@H]3CCC[C@@H]3c3ccccc3)N2C1=O (stereo in doubt) [Example 42] | < 3000 |  |  | < 1000 | < 1000 | < 1000 | < 1000 |  |  |  | 
CN[C@@H](C)C(=O)N[C@H]1CN(C(=O)NCCCCCCNC(=O)N2CC[C@H]3CC[C@@H](C(=O)N[C@@H]4CCC[C@H]4c4ccccc4)N3C(=O)[C@@H](NC(=O)[C@H](C)NC)C2)CC[C@H]2CCC(C(=O)N[C@@H]3CCC[C@H]3c3ccccc3)N2C1=O (stereo in doubt) [Example 43] | < 3000 |  |  | < 3000 | < 3000 | < 1000 | < 1000 |  |  |  | 
CN[C@@H](C)C(=O)N[C@H]1CN(C(=O)NCCCCCCNC(=O)N2CC[C@H]3CC[C@@H](C(=O)N[C@@H]4CCC[C@@H]4c4ccccc4)N3C(=O)[C@@H](NC(=O)[C@H](C)NC)C2)CC[C@H]2CCC(C(=O)N[C@@H]3CCC[C@@H]3c3ccccc3)N2C1=O (stereo in doubt) [Example 44] | < 3000 |  |  | < 1000 | < 1000 | < 1000 | < 1000 |  |  |  | 
CN[C@@H](C)C(=O)N[C@H]1CN(C(=O)NCCCCCCCCNC(=O)N2CC[C@H]3CC[C@@H](C(=O)N[C@@H]4CCCc5ccccc54)N3C(=O)[C@@H](NC(=O)[C@H](C)NC)C2)CC[C@H]2CCC(C(=O)N[C@@H]3CCCc4ccccc43)N2C1=O (stereo partly shown) [Example 4] | < 100 |  |  | < 10 | < 100 |  |  | < 100 | < 100 |  | 
CN[C@@H](C)C(=O)N[C@H]1CN(C(=O)Nc2ccc(NC(=O)N3CC[C@H]4CC[C@@H](C(=O)N[C@@H]5CCCc6ccccc65)N4C(=O)[C@@H](NC(=O)[C@H](C)NC)C3)cc2)CC[C@H]2CCC(C(=O)N[C@@H]3CCCc4ccccc43)N2C1=O (stereo partly shown) [Example 5] | < 100 |  |  | < 10 | < 100 | < 100 | < 100 |  |  |  | 
CN[C@@H](C)C(=O)N[C@H]1CN(C(=O)NCc2cccc(CNC(=O)N3CC[C@H]4CC[C@@H](C(=O)N[C@@H]5CCCc6ccccc65)N4C(=O)[C@@H](NC(=O)[C@H](C)NC)C3)c2)CC[C@H]2CCC(C(=O)N[C@@H]3CCCc4ccccc43)N2C1=O (stereo partly shown) [Example 6] | < 100 |  |  | < 10 | < 100 |  |  | < 100 | < 100 |  | 
CN[C@@H](C)C(=O)N[C@H]1CN(S(=O)(=O)CC/C=C/CCS(=O)(=O)N2CC[C@H]3CC[C@@H](C(=O)NC(c4ccccc4)c4ccccc4)N3C(=O)[C@@H](NC(=O)[C@H](C)NC)C2)CC[C@H]2CCC(C(=O)NC(c3ccccc3)c3ccccc3)N2C1=O (stereo partly shown) [Example 7] | < 300 |  |  | < 10 | < 300 |  |  | < 1000 | < 1000 |  | 
CN[C@@H](C)C(=O)N[C@H]1CN(C(=O)NCCCCCCNC(=O)N2CC[C@H]3CC[C@@H](C(=O)N[C@H]4C[C@H](c5ccccc5)C4)N3C(=O)[C@@H](NC(=O)[C@H](C)NC)C2)CC[C@H]2CCC(C(=O)N[C@H]3C[C@H](c4ccccc4)C3)N2C1=O (stereo partly shown) [Example 49] | < 5000 |  |  |  | < 1000 |  |  |  |  | < 1000 | 
CN[C@@H](C)C(=O)N[C@H]1CN(C(=O)NCCCCCCNC(=O)N2CC[C@H]3CC[C@@H](C(=O)N[C@H]4C[C@@H](c5ccccc5)C4)N3C(=O)[C@@H](NC(=O)[C@H](C)NC)C2)CC[C@H]2CCC(C(=O)N[C@H]3C[C@@H](c4ccccc4)C3)N2C1=O (stereo partly shown) [Example 50] |  |  |  |  | < 1000 |  |  |  |  | < 1000 | < 1000
